Experimental data published in patent US4994479A, “Phenylene derivatives and anti-allergic use thereof” (Yamanouchi Pharmaceutical Co., Ltd., priority 1985, dated 1991).

Columns and labels:
[1] = system: SRS-A-induced contractions of guinea-pig ileum; assay: Inhibition of SRS-A-induced contractions of isolated guinea-pig ileum; design: species or system guinea-pig (male Hartley); conditions: for IC50: Cavia porcellus, 20 min, submaximal concentration of SRS-A, incubation 20 minutes; for anti-SRS-A activity: in words
Procedure: (§1) Male Hartley guinea- pigs, weighing 500 to 700 g were sacrificed by a blow on the head. The ileum and tracheal strips prepared according to the method of Constantine (1965) were suspended with 1.0 g tension in an organ bath containing 10 ml of Tyrode solution equilibrated with a mixture of 95% O2 and 5% CO2 at 37° C. The tissues were equilibrated for 60 minutes; during this period the Tyrode solution was replaced every 15 minutes and the loading tension was adjusted to 1.0 g. The developed tension of the tissues was measured isometrically with a strain gauge transducer, and recorded on a Recticorder. Both the contractile response of the ileum to submaximal concentration of SRS-A (derived from guinea-pig lung) and tracheal response to 10^-8 M LTD4 were recorded in the absence and then the presence of various concentrations of test compounds. The incubation time of the compounds was 20 minutes.

[2] = system: LTD4-induced contractions of guinea-pig trachea; assay: Inhibition of LTD4-induced contractions of isolated guinea-pig trachea; design: species or system guinea-pig (male Hartley); conditions: for IC50: Cavia porcellus, 20 min, 10^-8 M LTD4, incubation 20 minutes; for inhibition of contractions induced by LTD4: in words
Procedure: as §1

[3] = system: LTD4-enhanced vascular permeability; assay: Inhibition of LTD4-enhanced vascular permeability in guinea-pigs; format: in vivo, guinea-pig (male Hartley); conditions: for ED50: Cavia porcellus, 30 minutes before intradermal 5 ng LTD4; for ED50 / inhibition of LTD4-enhanced vascular permeability: oral; for anti-Leukotriene effect by oral route / inhibition of LTD4-enhanced vascular permeability: in words; for inhibition of LTD4-enhanced vascular permeability: 30 minutes before LTD4
Procedure: Male Hartley guinea-pigs weighing 270 to 305, g starved for 16 hours, were intradermally injected with 5 ng LTD4 in a volume of 0.1 ml into two sites on the shaved back. In addition, 0.1 ml of vehicle was injected intradermally in each animal to see non-specific irritation. One ml of saline containing 1% Evans […] was intravenously injected 2 minutes before LTD4 injection. The leaked dye at the site of LTD4 or vehicle injection was extracted according to the method of Harada et al. (1971) and measured photometrically at 620 nm. The LTD4 -induced skin reaction was expressed as a difference in the amount of dye between LTD4 and vehicle. Test compounds were orally administered 30 minutes before LTD4 injection.

SMILES | IC50 [1] | anti-SRS-A activity [1] | IC50 [2] | inhibition of contractions induced by LTD4 [2] | ED50 [3] | anti-Leukotriene effect by oral route [3] | inhibition of LTD4-enhanced vascular permeability [3]
CCOC(=O)CCc1ccccc1NC(=O)c1ccc(OCCCCc2ccccc2)cc1 [Example 10, Ethyl 3-[o-[p-(4-phenylbutoxy)benzamido]phenyl]propionate] | 18 nM | potent anti-SRS-A activity |  |  |  |  | 
O=C(O)CCc1ccccc1NC(=O)c1ccc(OCCCCc2ccccc2)cc1 [Example 18, 3-[o-[p-(4-Phenylbutoxy)benzamido]phenyl]propionic acid] | 33 nM | potent anti-SRS-A activity |  |  |  |  | 
CCCCCCCOc1cccc(C(=O)Nc2ccccc2OCc2nnn[nH]2)c1 [Example 23, 3-Heptyloxy-2'-(5-tetrazolylmethoxy)benzanilide] | 44 nM | potent anti-SRS-A activity | 400 nM | inhibited the contractions induced by LTD4 | 22.8 mg/kg | potent anti-Leukotriene effect | dose-dependently inhibited
Cc1ccc(OCC(=O)O)c(NC(=O)c2ccc(OCCCCc3ccccc3)cc2)c1 [Example 39, 4-methyl-2-[p-(4-phenylbutoxy)benzamido]phenoxyacetic acid] | 7.3 nM | potent anti-SRS-A activity | 250 nM | inhibited the contractions induced by LTD4 | 36.1 mg/kg | potent anti-Leukotriene effect | dose-dependently inhibited
O=C(O)COc1ccc(Cl)cc1NC(=O)c1ccc(OCCCCc2ccccc2)cc1 [Example 40, 4-Chloro-2-[p-(4-phenylbutoxy)benzamido]phenoxyacetic acid] | 3.6 nM | potent anti-SRS-A activity | 57 nM | inhibited the contractions induced by LTD4 | 5.5 mg/kg | potent anti-Leukotriene effect | dose-dependently inhibited
O=C(O)COc1ccc([N+](=O)[O-])cc1NC(=O)c1ccc(OCCCCc2ccccc2)cc1 [Example 41, 4-Nitro-2-[p-(4-phenylbutoxy)benzamido]phenoxyacetic acid] | 7.4 nM | potent anti-SRS-A activity |  |  |  |  | 
O=C(O)COc1ccccc1NC(=O)c1ccc(OCCCCc2ccccc2)cc1 [Example 42, o-[p-(4-Phenylbutoxy)benzamido]phenoxyacetic acid] | 81 nM | potent anti-SRS-A activity |  |  |  |  | 
